Measurements reported in publication PMC8645336, “Benchmarking a highly selective USP30 inhibitor for enhancement of mitophagy and pexophagy” (Life Science Alliance, 2021).

Assays:
CYLD = molecular target: T1, CYLD (Homo sapiens, UniProt Q9NQC7); assay: biochemical; parameters: Ubiquigent DUB profiler selectivity panel, remaining enzyme activity as % of control; details: read-out: % of control remaining
T1 sequence (Q9NQC7 1-956): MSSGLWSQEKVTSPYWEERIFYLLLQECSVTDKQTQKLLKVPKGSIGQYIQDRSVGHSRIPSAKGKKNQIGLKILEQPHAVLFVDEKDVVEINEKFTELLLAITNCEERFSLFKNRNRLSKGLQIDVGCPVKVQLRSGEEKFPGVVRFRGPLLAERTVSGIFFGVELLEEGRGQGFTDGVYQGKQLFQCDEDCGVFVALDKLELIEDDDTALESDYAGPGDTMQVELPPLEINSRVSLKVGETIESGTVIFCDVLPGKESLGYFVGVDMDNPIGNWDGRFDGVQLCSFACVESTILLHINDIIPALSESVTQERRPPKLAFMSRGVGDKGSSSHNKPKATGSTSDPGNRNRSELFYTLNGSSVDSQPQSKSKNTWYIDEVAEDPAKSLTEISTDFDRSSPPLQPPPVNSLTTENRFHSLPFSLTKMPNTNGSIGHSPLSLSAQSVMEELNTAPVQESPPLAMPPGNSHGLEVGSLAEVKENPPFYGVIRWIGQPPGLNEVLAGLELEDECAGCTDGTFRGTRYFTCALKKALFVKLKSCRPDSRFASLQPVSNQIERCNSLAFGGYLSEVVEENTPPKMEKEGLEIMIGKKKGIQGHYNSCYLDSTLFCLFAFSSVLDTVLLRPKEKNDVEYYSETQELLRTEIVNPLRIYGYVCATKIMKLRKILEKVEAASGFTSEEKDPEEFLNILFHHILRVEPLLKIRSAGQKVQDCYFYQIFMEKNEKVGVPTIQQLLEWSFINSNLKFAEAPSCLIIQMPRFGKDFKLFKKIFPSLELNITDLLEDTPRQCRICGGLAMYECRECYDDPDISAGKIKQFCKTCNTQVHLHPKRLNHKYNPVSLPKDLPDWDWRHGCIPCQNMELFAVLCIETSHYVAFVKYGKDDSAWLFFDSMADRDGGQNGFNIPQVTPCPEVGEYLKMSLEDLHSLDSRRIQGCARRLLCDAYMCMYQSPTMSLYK
Method in brief: (§1)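 In YFP-PRKN-overexpressing hTERT-RPE1 cells, 1 h antimycin A plus oligomycin A (1 μM each) with CMPD-39, then Western blot of TOMM20 ubiquitylation. Target engagement: 2 h compound, then 10 min HA-Ub-PA at 37°C, read as USP30 shift. DUB panel (>40 enzymes) screened at 1-100 μM.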

OTUD3 = molecular target: T2, OTUD3 (Homo sapiens, UniProt Q5T2D3); assay: biochemical; parameters: Ubiquigent DUB profiler selectivity panel, remaining enzyme activity as % of control; details: read-out: % of control remaining
T2 sequence (Q5T2D3 1-398): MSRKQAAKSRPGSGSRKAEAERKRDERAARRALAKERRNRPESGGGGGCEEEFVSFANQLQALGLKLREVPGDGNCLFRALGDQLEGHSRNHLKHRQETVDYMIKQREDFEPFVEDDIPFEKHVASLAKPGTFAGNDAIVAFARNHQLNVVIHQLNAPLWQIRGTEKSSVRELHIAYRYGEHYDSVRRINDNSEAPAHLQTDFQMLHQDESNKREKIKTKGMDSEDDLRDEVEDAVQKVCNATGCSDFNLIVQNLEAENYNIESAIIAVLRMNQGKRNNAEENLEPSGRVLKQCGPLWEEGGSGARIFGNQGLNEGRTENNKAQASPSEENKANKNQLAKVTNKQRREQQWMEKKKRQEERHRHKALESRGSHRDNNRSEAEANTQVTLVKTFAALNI
Method in brief: as §1

remaining activity at 1 µM (CYLD): 107%
remaining activity at 10 µM (CYLD): 102%
remaining activity at 100 µM (CYLD): 98%
remaining activity at 1 µM (OTUD3): 105%
remaining activity at 10 µM (OTUD3): 101%
remaining activity at 100 µM (OTUD3): 107%
Compound: CC(C)(C)NS(=O)(=O)c1ccc(NC(=O)[C@H](Cc2ccccc2)NC(=O)c2ccc(F)cc2)cc1 [compound 39, CMPD-39]
